Data reported in article PMC9841531, “Indole Derivatives as New Structural Class of Potent and Antiproliferative Inhibitors of Monocarboxylate Transporter 1 (MCT1; SLC16A1)” (Journal of Medicinal Chemistry, 2022).

How the values were obtained:
A-549 cells = test: cell cycle distribution analysis, PI flow cytometry; type: cell-based; details: 5 μM, 24 h
Experimental: The antineoplastic agent 33 (5 μM) was used as a reference. […] Compound 24 caused a disruption of the cell cycle of A-549 cancer cells, indicated by a shift from the predominant G0/G1 phase (Figure 8A) to the apoptotic sub-G1 phase as well as the G2/M phase (Figure 8B). A similar G2/M arrest could be observed for reference compound 33 (Figure 8C); however, MCT1 inhibitor 24 led to a larger fraction of cells into the sub-G1 phase, indicating induced apoptosis. This experiment discovered that compound 24 inhibits cell proliferation, causing cell cycle arrest and, eventually, apoptosis. To confirm our findings, we conducted an apoptosis assay using compound 24.
A standard PI staining procedure was used as described earlier[44]−[46] to determine the effect of compounds 24 and 33 on cell cycle progression, followed by flow cytometry analysis (FACS Aria SORP and FACS Aria Fusion, BD Biosciences, Franklin Lakes, NJ). In brief, A-549 cells were seeded onto a 6-well plate (250,000 cells/well) and incubated for 24 h at 37 °C under a 5% CO2-humidified atmosphere before being observed under a microscope. The cells were treated with compound 24 (5 μM) or 33 (5 μM) and further incubated for 24 h at 37 °C under a 5% CO2-humidified atmosphere. Then, the cells were harvested and washed twice with cold PBS (Genetix Biotech Asia, New Delhi, India) before being fixed overnight in ice-cold 70% (v/v) ethanol at 4 °C. The cells were again washed two times with PBS and subsequently resuspended with RNase (100 μg/mL; HiMedia, Mumbai, India) and their DNA was stained with PI (40 μg/mL; Sigma-Aldrich, Mumbai, India) before being incubated in the dark for 10 min. The DNA content was measured at the Indian Institute of Technology Bombay (IITB, Mumbai, India) by applying flow cytometry.

A2780 cells = test: MTT-based cell toxicity of 33 on sensitive A2780 cells; details: Homo sapiens, 33 alone, 72 h, read-out: A2780 cell toxicity 33 + 0.0 μM cmpd. GI50 ± SEM
Experimental: (§1) This sensitization is indicated by a shift of the concentration-effect curve of compound 33 from the right (=high concentrations of 33 needed to induce A2780/ADR cell death) to the left (=lower concentrations of 33 needed to induce A2780/ADR cell death). The concentration-effect curve of compound 33 in combination with 5 μM of either compound 24 or 30 resembles the concentration-effect curve of the sensitive cell line A2780. […] Thus, their potentiating effect with respect to the antiproliferative agent 33 against ABCB1-expressing A2780/ADR cells is due to the inhibition of ABCB1. Therefore, compounds 24 and 30 were dually effective against MCT1- and ABCB1-expressing cells (Table 5).
(§2) An MDR-reversal assay[2],[55]−[59] was used to investigate the ability to reverse ABCB1-mediated MDR in A2780/ADR cells toward the cytotoxic ABCB1 substrate 33. […] A dilution series of 33 at concentrations between 0.1 μM and 100 μM was generated, and 20 μL of each concentration was transferred onto the plates (final concentration: 0.01–10 μM). The plates were incubated for 72 h at 37 °C and a 5% CO2-humidified atmosphere, before subsequent processing with the regular MTT assay as described above. The observed effects of compounds 24 and 30 were compared to the effect of 33 alone on A2780/ADR cells as well as its sensitive counterpart A2780 (∼10,000 cells/well).

[1] = test system: MCT1-expressing A-549 cells; test: MTT-based efficacy assay, 33 in combination with test compound, A-549; type: cell-based; details: Homo sapiens, A549; 33 alone, 72 h; read-out: A-549 cell toxicity 33 + 0 nM test cmpd. GI50 ± SEM
Experimental: MCT1 inhibition anticipates challenging cancer cell energy supply and, thus, increases the efficacy of anticancer agents.
For this purpose, 10 μL of compounds 24 or 30 (50 nM, 100 nM, or 500 nM) was transferred onto a colorless flat-bottom 96-well microplate and complemented with 180 μL of a cell suspension containing either approximately 5,000 A-549 cells. A dilution series of compound 33 at concentrations between 50 nM and 50 μM was generated, and 10 μL of each concentration was transferred onto the plate. The observed effects of compounds 24 and 30 were compared to the effect of compound 33 alone on A-549. The plates were incubated for 72 h at 37 °C and a 5% CO2-humidified atmosphere, before subsequent processing with the regular MTT assay as described above.[43]

[2] = test system: ABCB1-expressing A2780/ADR cells; test: MTT-based efficacy (MDR-reversal) assay, 33 in combination with test compound, A2780/ADR; type: cell-based; details: A2780 ADR; 33 alone, 72 h; read-out: A2780/ADR cell toxicity 33 + 0.0 μM cmpd. GI50 ± SEM
Experimental: as §1, §2

SMILES: COc1cccc2c1C(=O)c1c(O)c3c(c(O)c1C2=O)C[C@@](O)(C(=O)CO)C[C@@H]3O[C@H]1C[C@H](N)[C@H](O)[C@H](C)O1 [Compound 33, doxorubicin, reference compound]
- cells in G0/G1 phase (A-549 cells): 41.1%
- cells in G2/M phase (A-549 cells): 26.2%
- cells in S phase (A-549 cells): 27.4%
- cells in Sub-G1 phase (A-549 cells): 4.00%
- GI50 (A2780 cells): 19.4 ± 1.7 nM
- GI50 [1]: 47.6 ± 0.7 nM
- GI50 [2]: 802 ± 81 nM
